Test results as given in patent publication US6737383B1, “Herbicidal oxadiazolidines” (priority 1999, dated 2004).

Tests used:
[1] = tested on: purple nutsedge; assay: Test B pre/postemergence purple nutsedge; assay type: in vivo, Cyperus rotundus
Method in brief: (§1)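 Test chemicals in a non-phytotoxic solvent mixture with surfactant were sprayed preemergence onto planted seeds and postemergence onto plants 2 to 18 cm tall (1- to 4-leaf stage). After twelve to sixteen days in a greenhouse, injury was visually rated against untreated controls from 0 (no effect) to 10 (complete control).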

[2] = tested on: velvetleaf; assay: Test B pre/postemergence velvetleaf; assay type: in vivo, Abutilon theophrasti
Method in brief: as §1

[3] = tested on: wheat; assay: Test B pre/postemergence wheat; assay type: in vivo, Triticum aestivum
Method in brief: as §1

[4] = tested on: pigweed; assay: Test B pre/postemergence pigweed; assay type: in vivo, Amaranthus retroflexus
Method in brief: as §1

[5] = tested on: soybean; assay: Test B pre/postemergence soybean; assay type: in vivo, Glycine max
Method in brief: as §1

[6] = tested on: blackgrass; assay: Test B pre/postemergence blackgrass; assay type: in vivo, Alopecurus myosuroides
Method in brief: as §1

[7] = tested on: sugar beet; assay: Test B pre/postemergence sugar beet; assay type: in vivo, Beta vulgaris
Method in brief: as §1

[8] = tested on: cocklebur; assay: Test B pre/postemergence cocklebur; assay type: in vivo, Xanthium strumarium
Method in brief: as §1

[9] = tested on: bamyardgrass; assay: Test B flood test barnyardgrass; assay type: in vivo, Echinochloa crus-galli
Method in brief: (§2)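 Plants were grown to the 2-leaf stage before treatment with test chemical, then held in a greenhouse for twelve to sixteen days. Injury was visually rated against untreated controls on a 0–10 scale, where 0 is no effect and 10 is complete control.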

[10] = tested on: smallflower flatsedge; assay: Test B flood test smallflower flatsedge; assay type: in vivo, Cyperus difformis
Method in brief: as §2

[11] = tested on: duck salad; assay: Test B flood test duck salad; assay type: in vivo, Heteranthera limosa
Method in brief: as §2

[12] = tested on: morningglory; assay: Test B pre/postemergence morningglory; assay type: in vivo, Ipomoea hederacea
Method in brief: as §1

[13] = tested on: wild oat; assay: Test B pre/postemergence wild oat; assay type: in vivo, Avena fatua
Method in brief: as §1

[14] = tested on: rice; assay: Test B flood test rice; assay type: in vivo, Oryza sativa
Method in brief: as §2

[15] = tested on: rape; assay: Test B pre/postemergence rape; assay type: in vivo, Brassica napus
Method in brief: as §1

[16] = tested on: giant foxtail; assay: Test B pre/postemergence giant foxtail; assay type: in vivo, Setaria faberii
Method in brief: as §1

[17] = tested on: surinam grass; assay: Test B pre/postemergence surinam grass; assay type: in vivo, Brachiaria decumbens
Method in brief: as §1

[18] = tested on: bedstraw; assay: Test B pre/postemergence bedstraw; assay type: in vivo, Galium aparine; settings: for Bedstraw plant response rating: scale of 0 to 10 where 0 is no effect and 10 is complete control
Method in brief: as §1

[19] = tested on: corn; assay: Test B pre/postemergence corn; assay type: in vivo, Zea mays
Method in brief: as §1

[20] = tested on: crabgrass; assay: Test B pre/postemergence crabgrass; assay type: in vivo, Digitaria sanguinalis
Method in brief: as §1

[21] = Preemergence, Rate 62 g/ha, scale of 0 to 10 where 0 is no effect and 10 is complete control
[22] = Rate 62 g/ha, Postemergence, scale 0 to 10 (0 no effect, 10 complete control)
[23] = Rate 125 g/ha, Postemergence, scale of 0 to 10 where 0 is no effect and 10 is complete control
[24] = Rate 250 g/ha, Postemergence, scale of 0 to 10 where 0 is no effect and 10 is complete control
[25] = Preemergence, Rate 250 g/ha, scale of 0 to 10 where 0 is no effect and 10 is complete control
[26] = Preemergence, Rate 500 g/ha, scale of 0 to 10 where 0 is no effect and 10 is complete control
[27] = Rate 500 g/ha, Postemergence, scale 0 to 10, 0 no effect, 10 complete control
[28] = Rate 62 g/ha, headed Pre-emergence (flood test species), scale 0 to 10 (0 no effect, 10 complete control)
[29] = Rate 125 g/ha, Pre-emergence, flood test species, scale 0 to 10 where 0 is no effect and 10 is complete control
[30] = Rate 250 g/ha, Pre-emergence, flood-test species, scale 0 to 10, 0 is no effect, 10 is complete control
[31] = Rate 500 g/ha, Pre-emergence, flood test species, scale 0 to 10 (0 no effect, 10 complete control)

CC(C)C(C)n1c(=O)on(C(=O)N(c2ccc(F)cc2)C(C)C)c1=O (stereo not shown) [Compound 316]
Nutsedge plant response rating [1, 21]: 0 | Nutsedge plant response rating (0 to 10 scale) ([1]; Preemergence, Rate 125 g/ha): 0 | Nutsedge plant response rating [1, 22]: 0 | Nutsedge plant response rating [1, 23]: 0 | Plant response rating, Nutsedge [1, 24]: 0 | Velvetleaf plant response rating [2, 21]: 0 | Velvetleaf plant response rating (0 to 10 scale) ([2]; Preemergence, Rate 125 g/ha): 2 | Velvetleaf plant response rating [2, 25]: 3 | Velvetleaf plant response rating [2, 26]: 6 | Velvetleaf plant response rating [2, 22]: 0 | Velvetleaf plant response rating [2, 23]: 0 | Plant response rating, Velvetleaf [2, 24]: 2 | Wheat plant response rating [3, 21]: 0 | Wheat plant response rating (0 to 10 scale) ([3]; Preemergence, Rate 125 g/ha): 0 | Wheat plant response rating [3, 25]: 2 | Wheat plant response rating [3, 26]: 2 | Wheat plant response rating [3, 22]: 0 | Wheat plant response rating [3, 23]: 0 | Plant response rating, Wheat [3, 24]: 2 | Redroot pigweed plant response rating [4, 21]: 4 | Redroot pigweed plant response rating (0 to 10 scale) ([4]; Preemergence, Rate 125 g/ha): 6 | Redroot pigweed plant response rating [4, 25]: 10 | Redroot pigweed plant response rating [4, 26]: 10 | Redroot pigweed plant response rating [4, 22]: 2 | Redroot pigweed plant response rating [4, 23]: 2 | Plant response rating, Redroot pigweed [4, 24]: 3 | Soybean plant response rating [5, 21]: 0 | Soybean plant response rating (0 to 10 scale) ([5]; Preemergence, Rate 125 g/ha): 0 | Soybean plant response rating [5, 25]: 0 | Soybean plant response rating [5, 26]: 0 | Soybean plant response rating [5, 22]: 3 | Soybean plant response rating [5, 23]: 3 | Plant response rating, Soybean [5, 24]: 4 | Blackgrass plant response rating [6, 21]: 8 | Blackgrass plant response rating (0 to 10 scale) ([6]; Preemergence, Rate 125 g/ha): 10 | Blackgrass plant response rating [6, 25]: 10 | Blackgrass plant response rating [6, 26]: 10 | Blackgrass plant response rating [6, 22]: 0 | Blackgrass plant response rating [6, 23]: 1 | Plant response rating, Blackgrass [6, 24]: 4 | Blackgrass plant response rating [6, 27]: 7 | Sugarbeets plant response rating [7, 21]: 0 | Sugarbeets plant response rating (0 to 10 scale) ([7]; Preemergence, Rate 125 g/ha): 0 | Sugarbeets plant response rating [7, 25]: 0 | Sugarbeets plant response rating [7, 26]: 4 | Sugarbeets plant response rating [7, 22]: 0 | Sugarbeets plant response rating [7, 23]: 0 | Plant response rating, Sugarbeets [7, 24]: 0 | Cocklebur plant response rating [8, 21]: 0 | Cocklebur plant response rating [8, 25]: 0 | Cocklebur plant response rating [8, 26]: 2 | Cocklebur plant response rating [8, 22]: 0 | Cocklebur plant response rating [8, 23]: 0 | Plant response rating, Cocklebur [8, 24]: 0 | Cocklebur plant response rating [8, 27]: 0 | Barnyardgrass plant response rating [9, 28]: 3 | Barnyardgrass plant response rating [9, 29]: 6 | Barnyardgrass plant response rating [9, 30]: 9 | Barnyardgrass plant response rating [9, 31]: 9 | S. Flatsedge plant response rating [10, 28]: 0 | S. Flatsedge plant response rating [10, 29]: 0 | S. Flatsedge plant response rating [10, 30]: 9 | S. Flatsedge plant response rating [10, 31]: 9 | Ducksalad plant response rating [11, 28]: 0 | Ducksalad plant response rating [11, 29]: 0 | Ducksalad plant response rating [11, 30]: 3 | Ducksalad plant response rating [11, 31]: 0 | Morningglory plant response rating [12, 21]: 0 | Morningglory plant response rating (0 to 10 scale) ([12]; Preemergence, Rate 125 g/ha): 0 | Morningglory plant response rating [12, 25]: 0 | Morningglory plant response rating [12, 26]: 0 | Morningglory plant response rating [12, 22]: 3 | Morningglory plant response rating [12, 23]: 4 | Plant response rating, Morningglory [12, 24]: 5 | Wild oats plant response rating [13, 21]: 4 | Wild oats plant response rating (0 to 10 scale) ([13]; Preemergence, Rate 125 g/ha): 4 | Wild oats plant response rating [13, 25]: 6 | Wild oats plant response rating [13, 26]: 6 | Wild oats plant response rating [13, 22]: 0 | Wild oats plant response rating [13, 23]: 0 | Plant response rating, Wild oats [13, 24]: 2 | Rice plant response rating [14, 28]: 0 | Rice plant response rating [14, 29]: 0 | Rice plant response rating [14, 30]: 1 | Rice plant response rating [14, 31]: 0 | Rape plant response rating [15, 21]: 0 | Rape plant response rating (0 to 10 scale) ([15]; Preemergence, Rate 125 g/ha): 0 | Rape plant response rating [15, 25]: 4 | Rape plant response rating [15, 26]: 4 | Rape plant response rating [15, 22]: 0 | Rape plant response rating [15, 23]: 0 | Plant response rating, Rape [15, 24]: 1 | Giant foxtail plant response rating [16, 21]: 9 | Giant foxtail plant response rating (0 to 10 scale) ([16]; Preemergence, Rate 125 g/ha): 10 | Giant foxtail plant response rating [16, 25]: 10 | Giant foxtail plant response rating [16, 26]: 10 | Giant foxtail plant response rating [16, 22]: 0 | Giant foxtail plant response rating [16, 23]: 0 | Plant response rating, Giant foxtail [16, 24]: 2 | B. signalgrass plant response rating [17, 21]: 6 | B. signalgrass plant response rating (0 to 10 scale, 0 is no effect, 10 is complete control) ([17]; Preemergence, Rate 125 g/ha): 7 | B. signalgrass plant response rating [17, 25]: 9 | B. signalgrass plant response rating [17, 26]: 9 | B. signalgrass plant response rating [17, 22]: 0 | B. signalgrass plant response rating [17, 23]: 0 | Plant response rating, B. signalgrass [17, 24]: 0 | B. signalgrass plant response rating [17, 27]: 2 | Bedstraw plant response rating ([18]; Preemergence, Rate 62 g/ha): 0 | Bedstraw plant response rating (0 to 10 scale) ([18]; Preemergence, Rate 125 g/ha): 0 | Bedstraw plant response rating ([18]; Preemergence, Rate 250 g/ha): 3 | Bedstraw plant response rating ([18]; Preemergence, Rate 500 g/ha): 6 | Bedstraw plant response rating ([18]; Rate 125 g/ha, Postemergence): 2 | Corn plant response rating [19, 21]: 0 | Corn plant response rating (0 to 10 scale) ([19]; Preemergence, Rate 125 g/ha): 0 | Corn plant response rating [19, 25]: 0 | Corn plant response rating [19, 26]: 5 | Corn plant response rating [19, 22]: 0 | Corn plant response rating [19, 23]: 0 | Plant response rating, Corn [19, 24]: 0 | Corn plant response rating [19, 27]: 0 | Crabgrass plant response rating [20, 21]: 6 | Crabgrass plant response rating (0 to 10 scale) ([20]; Preemergence, Rate 125 g/ha): 8 | Crabgrass plant response rating [20, 25]: 8 | Crabgrass plant response rating [20, 26]: 10 | Crabgrass plant response rating [20, 22]: 0 | Crabgrass plant response rating [20, 23]: 0 | Plant response rating, Crabgrass [20, 24]: 0
